Results reported in patent US9439843B2, “Oral care compositions” (Colgate-Palmolive Company, priority 2011, dated 2016).

Assay: Solubility of isobutyl magnolol (statement in words)
Format: physicochemical
Settings: background statement

## CC(C)Cc1ccc(O)c(-c2cc(CC(C)C)ccc2O)c1 [isobutyl magnolol, 5,5′-di(2-methylpropyl)-biphenyl-2,2′-diol]
  solubility both in water and in oil: extremely poor
